Source: patent US11266645B2, “Methods for treating lymphoma” (Alexion Pharmaceuticals, Inc., priority 2018, dated 2022)
Read-outs that look alike come from different tables or passages of the source.

Assays:
[1] = Blood absolute lymphocyte counts (ALC); type: in vivo, human; settings: 5 CLL/SLL patients
Source text: Treatment-related increases in blood absolute lymphocyte counts (ALC) occurred in both CLL/SLL and FL patients (FIG. 6A and FIG. 6B). Of the 6 CLL/SLL patients treated with cerdulatinib, 5 remained on drug long enough to monitor ALC, which were elevated 0.3-10 fold relative to pre-treatment. For two of these patients, treatment-related changes in tumor cell surface activation and homing markers were additionally evaluated (FIG. 7A and FIG. 7B). As shown in the ALC plots over time (FIG. 6A and FIG. 6B), by the beginning of the second cycle of treatment (Cycle 2 Day 1; C2D1) there was considerable mobilization of tumor cells into the peripheral blood.

[2] = tested on: JAK2-dependent STAT5 phosphorylation; experiment: Whole blood GM-CSF stimulation, STAT5 phosphorylation; type: cell-based, human; settings: patient samples
Description: (§1) For PD assessments, serial blood samples were drawn into lithium-heparin vacutainer tubes on Day 1 prior to dosing and again at 0.5, 1, 2, and 4 hours post-dose; on Day 8 at pre-dose and 2 hours post-dose; and Day 28 prior to dosing. Multiple assays were performed using the Day 1 and Day 8 PD samples. SYK-mediated BCR signaling in whole blood was measured prior to and post-dosing by stimulating 100 μL whole blood with 2 μL of anti-human IgD (IgG fraction) and 10 μg anti-human IgM for 10 minutes at 37° C., measuring the induction of pSYK Y525/526, pAKT S473, and pERK Y204. […] With blood samples from the CLL patients only, tumor cell surface expression of CD5, CD69, CD86, and CXCR4 pre-dose on days 1 and 28 were monitored. […] For each assay, data were collected using an LSR II instrument (BD Bioscience, San Jose, Calif.) and analyzed using Flowjo software (Flowjo LLC, Ashland, Oreg.). […]
The potency and selectivity for target inhibition following oral dosing in patients using a variety of whole blood assays was measured.

xenograft = experiment: Xenograft studies with rituximab; type: in vivo
[3] = tested on: JAK/STAT signaling (JAK1, JAK3, and TYK2 dependent); experiment: Whole blood IL-2, IL-4, IL-6 stimulated STAT phosphorylation after oral dosing; type: cell-based, human; settings: for IC50: Homo sapiens
Description: For PD assessments, serial blood samples were drawn into lithium-heparin vacutainer tubes on Day 1 prior to dosing and again at 0.5, 1, 2, and 4 hours post-dose; on Day 8 at pre-dose and 2 hours post-dose; and Day 28 prior to dosing. Multiple assays were performed using the Day 1 and Day 8 PD samples. SYK-mediated BCR signaling in whole blood was measured prior to and post-dosing by stimulating 100 μL whole blood with 2 μL of anti-human IgD (IgG fraction) and 10 μg anti-human IgM for 10 minutes at 37° C., measuring the induction of pSYK Y525/526, pAKT S473, and pERK Y204. Similarly, whole blood was stimulated with 10 ng/mL of IL-2 (JAK1/3-dependent), IL-4 (JAK1/3-dependent), IL-6 (JAK1/TYK2-dependent) or GM-CSF (JAK2-dependent) for 20 minutes, measuring the induction of pSTAT5 Y694 in T-cells and NK cells, the induction of pSTAT6 Y641 in B cells, T-cells, NK cells, and monocytes, the induction of pSTAT3 Y705 in monocytes, B cells, and T-cells, and the induction of pSTAT5 Y694 in monocytes, respectively. The technical details for these assays were described in Coffey, G., et al., J Pharmacol Exp Ther, 2014. 351(3): p. 538-48. With blood samples from the CLL patients only, tumor cell surface expression of CD5, CD69, CD86, and CXCR4 pre-dose on days 1 and 28 were monitored. The recommended volume of antibodies were applied directly to 100 μL whole blood and incubated for 1 hour at room temperature. Afterwards, 4 mL of BD Lyse/Fix reagent was added to the blood to lyse red blood cells and fix the remaining leukocytes, followed by washing and FACS analysis. For each assay, data were collected using an LSR II instrument (BD Bioscience, San Jose, Calif.) and analyzed using Flowjo software (Flowjo LLC, Ashland, Oreg.). […]
The data were analyzed using the statistical language R and the accessory packages ggplot2 (Wickham, H., Elegant Graphics for Data Analysis. 2016: Springer-Verlag) and drc (Ritz, C., et al., Dose-Response Analysis Using R. PLoS One, 2015. 10(12): p. e0146021). For cell signaling assays, percent inhibition was determined by normalizing the receptor-induced phosphorylation events mean fluorescent intensity (MFI) to that of pre-dose receptor-induced MFI. The resulting relative activities were analyzed by nonlinear regression to a 3-parameter log-logistic function with an upper and lower limit set at 100 and 0%. […] Statistically significant differences between the healthy and patient serum marker at all cycles (Cycle 1 Day 1, Cycle 1 Day 8, and Cycle 2 Day 1) were detected by paired t test. […] The significance of the relation between maximum tumor response and change in a specific biomarker was evaluated using Spearman-Rank-correlation and p value.

[4] = tested on: SYK-mediated BCR signaling; experiment: Whole blood BCR signaling assay after oral dosing (pSYK Y525/526, pERK Y204, pAKT S473); type: cell-based, human; settings: for IC50: Homo sapiens
Description: as §1, with “Y204. Similarly, whole blood was stimulated with 10 ng/mL of IL-2 (JAK1/3-dependent), IL-4 (JAK1/3-dependent), IL-6 (JAK1/TYK2-dependent) or GM-CSF (JAK2-dependent) for 20 minutes, measuring the induction of pSTAT5 Y694 in T-cells and NK cells, the induction of pSTAT6 Y641 in B cells, T-cells, NK cells, and monocytes, the induction of pSTAT3 Y705 in monocytes, B cells, and T-cells, and the induction of pSTAT5 Y694 in monocytes, respectively.” for “Y204.”
The data were analyzed using the statistical language R and the accessory packages ggplot2 (Wickham, H., Elegant Graphics for Data Analysis. 2016: Springer-Verlag) and drc (Ritz, C., et al., Dose-Response Analysis Using R. PLoS One, 2015. 10(12): p. e0146021). For cell signaling assays, percent inhibition was determined by normalizing the receptor-induced phosphorylation events mean fluorescent intensity (MFI) to that of pre-dose receptor-induced MFI. The resulting relative activities were analyzed by nonlinear regression to a 3-parameter log-logistic function with an upper and lower limit set at 100 and 0%. […] The significance of the relation between maximum tumor response and change in a specific biomarker was evaluated using Spearman-Rank-correlation and p value.

SU-DHL6 xenograft = SU-DHL6 xenograft in Nude mice; type: in vivo; settings: tumors treated with cerdulatinib
Description: Xenograft studies in Nude mice were performed to evaluate cerdulatinib and venetoclax in combination. Nude mice were inoculated with […] SU-DHL6 cells subcutaneously. Once tumors reached 200 mm^3, the mice were randomized into 4 groups: vehicle, cerdulatinib alone, venetoclax alone, or a combination of cerdulatinib and venetoclax.

Compound: CCS(=O)(=O)N1CCN(c2ccc(Nc3ncc(C(N)=O)c(NC4CC4)n3)cc2)CC1 [cerdulatinib, 4-(cyclopropylamino)-2-((4-(4-(ethylsulfonyl)piperazin-1-yl)phenyl)amino)pyrimidine-5-carboxamide]
- ALC elevation relative to pre-treatment [1]: 0.3-10 fold
- inhibition of GM-CSF induced JAK2-dependent STAT5 phosphorylation [2]: sparing JAK2
- effect on the anti-tumor activity of rituximab (xenograft): does not interfere
- IC50 ([3]; B-cell, B cells, patients, read-out: average IC50, IL-4 signaling (pSTAT6 Y641)): 1.08 µM
- IC50 ([3]; B-cell, B cells, patients, read-out: average IC50, IL-6 signaling (pSTAT3 Y705)): 0.22 µM
- IC50 ([3]; po, depending on the cell lineage, whole blood, read-out: IC50, measures of JAK/STAT signaling): 0.19 to 1.11 µM
- inhibition of IL-2, IL-4, and IL-6 signaling ([3]; concentration-dependent): potently inhibited
- IC50 ([4]; po, estimated from PK/PD relationships, whole blood, read-out: IC50, measures of BCR-signaling): 0.33 to 0.73 µM
- IC50 ([4]; following oral dosing, lower and upper limit confidence intervals for ERK and AKT, read-out: IC50 against BCR signaling): 0.17 to 0.74 µM
- inhibition of BCR-induced pSYK Y525/526, pERK Y204 and pAKT S473 ([4]; at tolerated exposures): High level inhibition
- Bim expression in tumors (SU-DHL6 xenograft): increase
- MCL-1 in tumors (SU-DHL6 xenograft): no change
